In ChEMBL document CHEMBL3991601, “The target landscape of clinical kinase drugs” (Science, 2017) one finds Kd data, which are given here for six compounds.

Active and inactive are the calls of the source. Rule as the data show it, for most assays here: actives have a measured Kd and inactives only a lower limit.

For assay [1], the target named is T1, Serine/threonine-protein kinase ULK1 (Homo sapiens, UniProt O75385).
T1 sequence (O75385 whole entry): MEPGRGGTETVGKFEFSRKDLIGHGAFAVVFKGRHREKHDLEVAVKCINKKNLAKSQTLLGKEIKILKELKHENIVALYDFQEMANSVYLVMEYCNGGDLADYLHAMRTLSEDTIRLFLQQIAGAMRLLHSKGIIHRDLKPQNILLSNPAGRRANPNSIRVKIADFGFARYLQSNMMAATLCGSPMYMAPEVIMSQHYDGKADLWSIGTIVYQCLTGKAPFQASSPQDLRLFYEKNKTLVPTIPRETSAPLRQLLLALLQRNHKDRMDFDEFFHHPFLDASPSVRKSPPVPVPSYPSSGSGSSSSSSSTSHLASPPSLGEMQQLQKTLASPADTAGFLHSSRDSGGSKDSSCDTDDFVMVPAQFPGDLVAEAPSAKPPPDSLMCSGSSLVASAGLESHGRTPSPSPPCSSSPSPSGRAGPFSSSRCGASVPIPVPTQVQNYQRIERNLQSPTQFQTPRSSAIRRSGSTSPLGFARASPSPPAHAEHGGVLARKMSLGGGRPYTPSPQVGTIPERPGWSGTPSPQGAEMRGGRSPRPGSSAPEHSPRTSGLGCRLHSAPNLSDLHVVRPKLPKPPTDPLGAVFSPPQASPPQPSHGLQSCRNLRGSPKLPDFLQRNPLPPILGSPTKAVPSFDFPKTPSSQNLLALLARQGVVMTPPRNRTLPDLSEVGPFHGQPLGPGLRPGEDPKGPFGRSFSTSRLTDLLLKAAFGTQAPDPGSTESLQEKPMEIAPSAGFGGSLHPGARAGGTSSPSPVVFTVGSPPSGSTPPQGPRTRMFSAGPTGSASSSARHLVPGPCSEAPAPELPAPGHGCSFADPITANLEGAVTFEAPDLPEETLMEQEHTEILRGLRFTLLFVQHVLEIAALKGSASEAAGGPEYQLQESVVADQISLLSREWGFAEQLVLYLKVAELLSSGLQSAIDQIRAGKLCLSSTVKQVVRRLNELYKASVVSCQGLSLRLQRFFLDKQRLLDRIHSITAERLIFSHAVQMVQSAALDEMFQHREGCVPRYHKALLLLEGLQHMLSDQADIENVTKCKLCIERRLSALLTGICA

Assay [2] addresses Cyclin-dependent kinase 3 (Homo sapiens, UniProt Q00526).
Assay [3] addresses Mitogen-activated protein kinase kinase kinase kinase 4 (Homo sapiens, UniProt O95819).
For assay [4], the target named is Non-receptor tyrosine-protein kinase TYK2 (Homo sapiens, UniProt P29597).
Non-receptor tyrosine-protein kinase TYK2, sequence (P29597 whole entry): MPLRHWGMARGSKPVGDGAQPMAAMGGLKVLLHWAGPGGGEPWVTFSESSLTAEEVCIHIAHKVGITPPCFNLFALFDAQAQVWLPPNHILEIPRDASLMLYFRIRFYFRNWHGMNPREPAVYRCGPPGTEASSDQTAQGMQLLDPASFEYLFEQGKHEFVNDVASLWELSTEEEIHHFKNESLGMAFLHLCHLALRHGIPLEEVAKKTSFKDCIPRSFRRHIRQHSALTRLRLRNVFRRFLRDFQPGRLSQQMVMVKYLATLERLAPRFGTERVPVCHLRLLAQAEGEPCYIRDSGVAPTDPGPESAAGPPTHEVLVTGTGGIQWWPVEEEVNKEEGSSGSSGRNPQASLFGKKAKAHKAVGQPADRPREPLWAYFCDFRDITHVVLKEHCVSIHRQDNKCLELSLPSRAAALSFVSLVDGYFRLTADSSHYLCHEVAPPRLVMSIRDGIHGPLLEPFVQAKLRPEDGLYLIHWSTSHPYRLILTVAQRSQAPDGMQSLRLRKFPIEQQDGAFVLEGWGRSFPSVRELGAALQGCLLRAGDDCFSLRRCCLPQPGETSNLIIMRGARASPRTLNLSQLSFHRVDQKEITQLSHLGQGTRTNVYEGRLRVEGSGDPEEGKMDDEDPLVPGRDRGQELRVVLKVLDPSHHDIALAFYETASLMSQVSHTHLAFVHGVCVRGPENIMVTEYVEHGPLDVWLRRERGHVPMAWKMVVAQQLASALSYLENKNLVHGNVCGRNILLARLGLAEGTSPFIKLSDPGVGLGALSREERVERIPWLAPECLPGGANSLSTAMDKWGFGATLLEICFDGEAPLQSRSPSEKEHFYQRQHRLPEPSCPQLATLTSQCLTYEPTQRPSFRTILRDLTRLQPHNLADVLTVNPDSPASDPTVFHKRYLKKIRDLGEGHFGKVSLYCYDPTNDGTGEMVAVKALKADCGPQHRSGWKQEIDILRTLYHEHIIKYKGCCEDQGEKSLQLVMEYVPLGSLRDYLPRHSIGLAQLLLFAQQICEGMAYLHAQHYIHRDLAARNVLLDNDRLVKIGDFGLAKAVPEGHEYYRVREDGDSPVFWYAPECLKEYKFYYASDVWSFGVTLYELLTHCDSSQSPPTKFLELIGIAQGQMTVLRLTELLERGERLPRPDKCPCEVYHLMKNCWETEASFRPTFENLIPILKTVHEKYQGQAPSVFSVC
Assay [5] deals with Serine/threonine-protein kinase 10 (Homo sapiens, UniProt O94804).
Serine/threonine-protein kinase 10, sequence (O94804 whole entry): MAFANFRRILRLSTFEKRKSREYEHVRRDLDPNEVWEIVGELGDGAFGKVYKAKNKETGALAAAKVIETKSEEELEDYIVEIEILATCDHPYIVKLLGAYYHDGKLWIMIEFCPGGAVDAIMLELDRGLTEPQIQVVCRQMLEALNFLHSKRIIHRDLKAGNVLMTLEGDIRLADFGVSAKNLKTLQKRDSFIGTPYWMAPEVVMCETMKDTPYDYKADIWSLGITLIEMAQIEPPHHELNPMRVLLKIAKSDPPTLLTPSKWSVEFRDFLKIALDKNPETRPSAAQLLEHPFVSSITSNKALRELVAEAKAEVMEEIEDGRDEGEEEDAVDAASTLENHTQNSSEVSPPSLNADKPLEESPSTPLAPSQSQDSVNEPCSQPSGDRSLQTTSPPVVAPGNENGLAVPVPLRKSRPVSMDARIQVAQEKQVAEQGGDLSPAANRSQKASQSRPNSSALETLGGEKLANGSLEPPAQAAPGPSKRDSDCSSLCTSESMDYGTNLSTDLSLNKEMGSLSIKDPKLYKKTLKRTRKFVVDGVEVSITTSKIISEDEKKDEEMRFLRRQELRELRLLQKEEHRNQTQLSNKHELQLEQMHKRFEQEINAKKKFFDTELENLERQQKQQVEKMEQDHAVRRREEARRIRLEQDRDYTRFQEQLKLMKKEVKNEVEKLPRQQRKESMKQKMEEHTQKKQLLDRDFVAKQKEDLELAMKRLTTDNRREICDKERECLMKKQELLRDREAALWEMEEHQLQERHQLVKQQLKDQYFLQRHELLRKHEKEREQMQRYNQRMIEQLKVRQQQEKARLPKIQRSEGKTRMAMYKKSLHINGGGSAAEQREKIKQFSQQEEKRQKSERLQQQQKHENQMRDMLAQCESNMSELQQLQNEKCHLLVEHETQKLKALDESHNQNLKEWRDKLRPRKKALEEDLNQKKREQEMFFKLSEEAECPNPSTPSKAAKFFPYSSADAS
For the next assay, the target named is T2, ADP/ATP translocase 2 (Homo sapiens, UniProt P05141).
T2 sequence (P05141 whole entry): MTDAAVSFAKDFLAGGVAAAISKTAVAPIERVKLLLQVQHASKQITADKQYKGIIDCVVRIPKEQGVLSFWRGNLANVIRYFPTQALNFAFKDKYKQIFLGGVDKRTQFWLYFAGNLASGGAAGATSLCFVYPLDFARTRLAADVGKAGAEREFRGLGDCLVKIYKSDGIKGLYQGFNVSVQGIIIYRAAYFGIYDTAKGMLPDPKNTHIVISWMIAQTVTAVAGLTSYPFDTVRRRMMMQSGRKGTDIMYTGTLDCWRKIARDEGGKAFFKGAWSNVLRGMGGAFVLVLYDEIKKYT

Assay [6] concerns the target T3, Acyl-CoA dehydrogenase family member 11 (Homo sapiens, UniProt Q709F0).
T3 sequence (Q709F0 whole entry): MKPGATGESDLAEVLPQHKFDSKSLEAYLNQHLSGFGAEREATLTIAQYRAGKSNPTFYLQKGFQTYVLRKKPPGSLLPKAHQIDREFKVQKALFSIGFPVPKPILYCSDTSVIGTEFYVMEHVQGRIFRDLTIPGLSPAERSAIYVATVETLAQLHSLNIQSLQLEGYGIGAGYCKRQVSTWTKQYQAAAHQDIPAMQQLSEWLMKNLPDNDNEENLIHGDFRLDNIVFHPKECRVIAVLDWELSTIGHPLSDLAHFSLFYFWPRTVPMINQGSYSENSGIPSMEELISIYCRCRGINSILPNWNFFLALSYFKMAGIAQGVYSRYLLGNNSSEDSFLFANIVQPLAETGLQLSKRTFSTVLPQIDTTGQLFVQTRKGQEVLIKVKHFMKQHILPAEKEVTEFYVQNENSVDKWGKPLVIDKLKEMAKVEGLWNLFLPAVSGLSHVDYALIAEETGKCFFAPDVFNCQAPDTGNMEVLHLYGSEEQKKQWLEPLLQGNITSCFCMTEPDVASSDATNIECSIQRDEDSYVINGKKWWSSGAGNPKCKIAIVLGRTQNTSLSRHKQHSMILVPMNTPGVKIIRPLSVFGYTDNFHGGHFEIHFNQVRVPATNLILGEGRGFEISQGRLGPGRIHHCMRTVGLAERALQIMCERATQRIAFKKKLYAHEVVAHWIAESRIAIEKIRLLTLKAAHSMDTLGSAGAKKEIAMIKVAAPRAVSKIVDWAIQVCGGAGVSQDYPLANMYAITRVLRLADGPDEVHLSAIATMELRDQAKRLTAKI

Assay [7] has as its target Protein-tyrosine kinase 6 (Homo sapiens, UniProt Q13882).
Assay [8] concerns the target Bone morphogenetic protein receptor type-1B (Homo sapiens, UniProt O00238).
Assay [9] has as its target Serine/threonine-protein kinase SIK2 (Homo sapiens, UniProt Q9H0K1).
Another assay deals with Wee1-like protein kinase (Homo sapiens, UniProt P30291).
Wee1-like protein kinase, sequence (P30291 whole entry): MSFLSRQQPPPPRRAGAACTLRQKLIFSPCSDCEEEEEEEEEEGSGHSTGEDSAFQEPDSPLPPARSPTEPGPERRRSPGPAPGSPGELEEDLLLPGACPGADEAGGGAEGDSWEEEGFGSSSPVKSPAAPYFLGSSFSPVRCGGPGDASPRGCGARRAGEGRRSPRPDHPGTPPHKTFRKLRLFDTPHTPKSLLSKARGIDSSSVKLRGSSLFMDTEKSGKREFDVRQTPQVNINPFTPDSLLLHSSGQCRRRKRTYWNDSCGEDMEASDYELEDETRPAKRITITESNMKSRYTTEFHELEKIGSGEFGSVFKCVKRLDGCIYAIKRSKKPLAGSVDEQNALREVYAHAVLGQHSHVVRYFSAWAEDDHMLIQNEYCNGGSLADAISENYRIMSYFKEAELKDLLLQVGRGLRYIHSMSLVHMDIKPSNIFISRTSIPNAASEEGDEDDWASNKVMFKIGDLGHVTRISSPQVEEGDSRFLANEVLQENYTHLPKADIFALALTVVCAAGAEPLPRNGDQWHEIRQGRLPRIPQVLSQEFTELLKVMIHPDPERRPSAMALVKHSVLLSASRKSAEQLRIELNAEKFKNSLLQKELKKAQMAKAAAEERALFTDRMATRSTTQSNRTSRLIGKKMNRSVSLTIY
The target in assay [10] is Mitogen-activated protein kinase 10 (Homo sapiens, UniProt P53779).
The target of another assay is GTP-binding protein 4 (Homo sapiens, UniProt Q9BZE4).
Also: in the data inactive means no Kd found up to 30 µM.

Protein-tyrosine kinase 6, sequence (Q13882 whole entry): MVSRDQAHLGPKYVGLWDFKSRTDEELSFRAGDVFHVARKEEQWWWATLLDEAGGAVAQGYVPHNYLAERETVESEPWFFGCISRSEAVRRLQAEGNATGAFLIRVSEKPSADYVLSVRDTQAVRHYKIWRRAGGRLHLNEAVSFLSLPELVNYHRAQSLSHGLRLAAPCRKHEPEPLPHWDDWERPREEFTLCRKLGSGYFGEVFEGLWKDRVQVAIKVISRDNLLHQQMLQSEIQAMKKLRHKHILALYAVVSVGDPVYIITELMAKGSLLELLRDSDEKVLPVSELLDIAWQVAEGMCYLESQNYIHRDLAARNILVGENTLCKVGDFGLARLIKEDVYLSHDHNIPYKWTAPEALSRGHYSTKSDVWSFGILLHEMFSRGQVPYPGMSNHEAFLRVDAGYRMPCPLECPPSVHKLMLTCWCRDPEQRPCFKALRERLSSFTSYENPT
Mitogen-activated protein kinase kinase kinase kinase 4, sequence (O95819 whole entry): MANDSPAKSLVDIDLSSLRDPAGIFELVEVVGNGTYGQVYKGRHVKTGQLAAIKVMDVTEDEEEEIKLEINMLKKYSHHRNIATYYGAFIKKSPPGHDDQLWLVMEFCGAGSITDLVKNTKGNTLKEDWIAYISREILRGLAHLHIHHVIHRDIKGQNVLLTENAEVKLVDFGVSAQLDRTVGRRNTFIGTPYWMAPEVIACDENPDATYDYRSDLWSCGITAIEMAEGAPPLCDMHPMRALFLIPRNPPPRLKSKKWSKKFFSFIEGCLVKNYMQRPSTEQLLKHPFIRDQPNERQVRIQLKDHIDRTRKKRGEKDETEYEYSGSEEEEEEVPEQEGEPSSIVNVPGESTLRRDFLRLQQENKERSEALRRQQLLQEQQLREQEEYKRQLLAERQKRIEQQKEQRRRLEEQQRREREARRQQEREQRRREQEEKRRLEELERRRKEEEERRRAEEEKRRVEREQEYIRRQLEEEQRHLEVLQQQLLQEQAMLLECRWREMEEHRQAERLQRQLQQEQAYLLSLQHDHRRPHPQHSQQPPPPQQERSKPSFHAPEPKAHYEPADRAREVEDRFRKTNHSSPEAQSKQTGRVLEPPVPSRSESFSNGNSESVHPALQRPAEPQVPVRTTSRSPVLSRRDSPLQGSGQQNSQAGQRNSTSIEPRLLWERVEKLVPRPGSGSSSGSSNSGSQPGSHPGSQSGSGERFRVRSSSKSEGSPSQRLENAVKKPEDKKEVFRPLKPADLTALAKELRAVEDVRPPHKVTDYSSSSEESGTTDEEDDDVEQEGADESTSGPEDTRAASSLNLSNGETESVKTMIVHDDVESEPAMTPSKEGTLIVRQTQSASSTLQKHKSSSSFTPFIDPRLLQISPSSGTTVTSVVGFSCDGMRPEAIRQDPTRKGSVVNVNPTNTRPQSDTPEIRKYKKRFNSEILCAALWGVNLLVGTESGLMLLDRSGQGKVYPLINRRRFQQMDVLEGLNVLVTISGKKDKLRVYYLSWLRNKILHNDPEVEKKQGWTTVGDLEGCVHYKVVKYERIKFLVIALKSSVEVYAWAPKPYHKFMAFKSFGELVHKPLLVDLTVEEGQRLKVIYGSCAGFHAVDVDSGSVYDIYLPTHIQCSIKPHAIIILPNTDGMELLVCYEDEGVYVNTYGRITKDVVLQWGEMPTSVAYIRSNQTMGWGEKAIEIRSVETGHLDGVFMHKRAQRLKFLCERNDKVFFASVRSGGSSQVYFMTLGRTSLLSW
Bone morphogenetic protein receptor type-1B, sequence (O00238 whole entry): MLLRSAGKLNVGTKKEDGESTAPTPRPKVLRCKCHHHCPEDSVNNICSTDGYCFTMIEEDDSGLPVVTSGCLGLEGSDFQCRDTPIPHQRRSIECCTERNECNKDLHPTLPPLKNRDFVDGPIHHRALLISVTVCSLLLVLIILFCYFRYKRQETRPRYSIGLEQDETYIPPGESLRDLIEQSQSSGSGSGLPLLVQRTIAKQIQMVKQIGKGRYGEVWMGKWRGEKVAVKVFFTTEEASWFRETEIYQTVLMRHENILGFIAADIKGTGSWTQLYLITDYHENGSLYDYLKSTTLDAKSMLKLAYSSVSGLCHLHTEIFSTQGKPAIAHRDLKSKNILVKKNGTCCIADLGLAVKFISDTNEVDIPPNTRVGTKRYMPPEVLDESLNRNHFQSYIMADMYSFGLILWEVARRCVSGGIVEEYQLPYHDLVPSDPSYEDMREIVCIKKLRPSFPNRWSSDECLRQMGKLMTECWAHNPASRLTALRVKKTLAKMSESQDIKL

On to `CN1CCC(CNc2ccc3ncc(-c4cccc(OC(F)(F)F)c4)n3n2)CC1` [SGI-1776], for which the Kd in [1] was > 30 µM (inactive); in assay [2], > 30 µM (inactive); in assay [3] it was > 30 µM (inactive); in [4] it was > 30 µM (inactive); in [5], 2.16 µM (active); at ADP/ATP translocase 2, > 30 µM (inactive). Besides, the Kd in assay [6] is > 30 µM (inactive); in assay [7], > 30 µM (inactive); in assay [8], > 30 µM (inactive); in assay [9], 6.12 µM (active); on Wee1-like protein kinase, > 30 µM (inactive); in assay [10], > 30 µM (inactive). In addition, at GTP-binding protein 4, the Kd was > 30 µM (inactive).

For the compound `CC(=O)Nc1cccc(-n2c(=O)n(C3CC3)c(=O)c3c(Nc4ccc(I)cc4F)n(C)c(=O)c(C)c32)c1` [TRAMETINIB], the Kd (in [1]; in assay [2]; in assay [3]; in [4]; in assay [5]; on ADP/ATP translocase 2) was > 30 µM (inactive) in each case. Moreover, the Kd (in [6]; in assay [7]; in [8]; in assay [9]; at Wee1-like protein kinase; in assay [10]) was > 30 µM (inactive) in each case. Moreover, on GTP-binding protein 4, the Kd is > 30 µM (inactive).

Regarding `CCCS(=O)(=O)Nc1ccc(F)c(C(=O)c2c[nH]c3ncc(-c4ccc(Cl)cc4)cc23)c1F` [VEMURAFENIB], the Kd (in [1]; in assay [2]; in assay [3]; in assay [4]; in assay [5]; on ADP/ATP translocase 2) was > 30 µM (inactive) in each case. Also, the Kd was > 30 µM (inactive) in assay [6]; 1.41 µM (active) in assay [7]; > 30 µM (inactive) in [8]; > 30 µM (inactive) in assay [9]; > 30 µM (inactive) at Wee1-like protein kinase; > 30 µM (inactive) in assay [10]. Also, the Kd on GTP-binding protein 4 was > 30 µM (inactive).

As to `COC(=O)[C@@]1(O)C[C@H]2O[C@]1(C)n1c3ccccc3c3c4c(c5c6ccccc6n2c5c31)C(=O)NC4` [K-252A], the Kd in [1] is > 30 µM (inactive); in assay [2] it was 0.032 µM (active); in assay [3], 0.019 µM (active); in assay [4], > 30 µM (inactive); in [5] it was 0.481 µM (active); at ADP/ATP translocase 2, > 30 µM (inactive). Also, the Kd is > 30 µM (inactive) in assay [6]; > 30 µM (inactive) in assay [7]; > 30 µM (inactive) in assay [8]; 0.058 µM (active) in [9]; > 30 µM (inactive) at Wee1-like protein kinase; > 30 µM (inactive) in assay [10]. For the same compound, the Kd at GTP-binding protein 4 is > 30 µM (inactive).

Consider `Cn1cc(-c2ccc3nnc(C(F)(F)c4ccc5ncccc5c4)n3n2)cn1` [JNJ-38877605], for which the Kd (in assay [1]; in assay [2]; in assay [3]; in assay [4]; in [5]; at ADP/ATP translocase 2) was > 30 µM (inactive) each time. Besides, the Kd (in [6]; in assay [7]; in assay [8]; in assay [9]; on Wee1-like protein kinase; in [10]) was > 30 µM (inactive) in each case. Moreover, the Kd at GTP-binding protein 4 is > 30 µM (inactive).

For the compound `Cc1cc([C@@H](C)Nc2ccccc2C(=O)O)c2nc(N3CCOCC3)cc(=O)n2c1` [AZD-6482], the Kd (in assay [1]; in assay [2]; in assay [3]; in assay [4]; in assay [5]; on ADP/ATP translocase 2) was > 30 µM (inactive) each time. The Kd (in assay [6]; in assay [7]; in [8]; in assay [9]; at Wee1-like protein kinase; in assay [10]) was > 30 µM (inactive) in each case. Further, the Kd on GTP-binding protein 4 was > 30 µM (inactive).

The term Kd denotes the constant that tells how readily two partners part at equilibrium.
